Laboratory results published in patent US11059860B2, “Biocidal peptide and preparation based thereon” (“VERTA RESEARCH-PRODUCTION COMPANY” LTD, priority 2017, dated 2021).
Where a SMILES comes first, the peptide text is derived from it. [ ]: non-standard residue; d: D form. Phe(2-Me) = Cc1ccccc1C[C@H](N)C(=O)O

Legend:
[1] = tested on: type 2 herpes simplex virus, strain G (ATCC VR-734, USA); experiment: Protective activity in lethal herpes infection caused in mice by vaginal infection; assay type: in vivo
[2] = tested on: spleen cells stimulated with LPS; assay type: cell-based, murine
thymus cells = experiment: Spontaneous proliferation of thymus cells (3H-thymidin capture); assay type: cell-based, murine; details: 72 hrs
[3] = tested on: RAW 264.7 macrophage line cells; experiment: NO production by RAW 264.7 macrophage line cells stimulated with LPS (Greiss test); assay type: cell-based
Experimental: Upon completion of incubation, the culture medium in all wells of the plate was replaced with 0.25 ml of fresh medium. […] Polymixin B (Calbiochem) (PMB) in the same concentrations was used as the positive control of the inhibition of the LPS effect. The prepared mixture was then added at 0.25 ml increments to the wells of the culture plate at least in two parallel experiments. A mixture of LPS and the culture medium was added to the control wells. The cells were cultivated for 24 hrs. in a CO2 incubator. NO production was measured based on the total nitrite level in the culture medium in the Greiss test by using a commercial reagent (Sigma) according to the manufacturer's specifications.

spleen cells = experiment: Spontaneous proliferation of spleen cells (3H-thymidin capture); assay type: cell-based, murine; details: for spontaneous proliferation of spleen cells (captured 3H-thymidin): 72 hrs
red blood cells = assay type: cell-based
Experimental: The mixture was then diluted with a phosphate (PBS) buffer (0.015 M Na2HPO4, 0.15 M NaCl, pH 7.4). Samples of peptides in specific concentrations in PBS were placed in wells of a 96-well plate, and a red cell suspension in PBS was added to the samples. The red cell concentration was 1%. PBS was used as the negative control (no hemolysis). The positive control (100% hemolysis) −0.1% triton X-100 in PBS. The plates were incubated for three hours at 37° C. under 5% CO2 and centrifuged. The supernatant was transferred to a clean plate. The intensity of the hemoglobin release from the destroyed red blood cells was determined on a tablet spectrophotometer “Victor-2” (Finland) at λ-450 nm. […] All measurements were made thrice.

[4] = mice, n = 15, applied once a day on days 1-5 post infection, followed 18 days
[5] = stimulated with 0.04 ml of LPS, peptide 0.4 μg/ml
[6] = stimulated with 0.04 ml of LPS, peptide 2 μg/ml
[7] = stimulated with 0.04 ml of LPS, peptide 10 μg/ml
[8] = stimulated with 0.2 ml of LPS, peptide 0.4 μg/ml
[9] = stimulated with 0.2 ml of LPS, peptide 2 μg/ml
[10] = stimulated with 0.2 ml of LPS, peptide 10 μg/ml

Row | Molecule | spontaneous proliferation of thymus cells (captured 3H-thymidin) (thymus cells; peptide 0.08 μg/ml) | spontaneous proliferation of thymus cells (captured 3H-thymidin) (thymus cells; peptide 0.4 μg/ml) | spontaneous proliferation of thymus cells (captured 3H-thymidin) (thymus cells; peptide 2 μg/ml) | spontaneous proliferation of thymus cells (captured 3H-thymidin) (thymus cells; peptide 10 μg/ml) | NO production inhibition [3, 5] | NO production inhibition [3, 6] | NO production inhibition [3, 7] | NO production inhibition [3, 8] | NO production inhibition [3, 9] | NO production inhibition [3, 10] | spontaneous proliferation of spleen cells (captured 3H-thymidin) (spleen cells; peptide 0.08 μg/ml) | spontaneous proliferation of spleen cells (captured 3H-thymidin) (spleen cells; peptide 0.4 μg/ml) | spontaneous proliferation of spleen cells (captured 3H-thymidin) (spleen cells; peptide 2 μg/ml) | spontaneous proliferation of spleen cells (captured 3H-thymidin) (spleen cells; peptide 10 μg/ml) | dose at which hemolysis was not induced (red blood cells) | further results
1 | Nc1nc2c(ncn2COCCO)c(=O)[nH]1 [Acyclovir] | – | – | – | – | – | – | – | – | – | – | – | – | – | – | – | Number of Dead animals [1, 4]: 4; Number of Survived animals [1, 4]: 11; Mortality ([1]; mice, n = 15, followed 18 days): 26.7%; Increase in ALS ([1]; versus virus control group): 2.5
2 | CC[C@H](C)[C@H](N)C(=O)N[C@@H](CC(C)C)C(=O)N1CCC[C@H]1C(=O)N[C@H](Cc1ccccc1)C(=O)N[C@@H](CCCCN)C(=O)N[C@H](Cc1ccccc1)C(=O)N1CCC[C@H]1C(=O)N[C@H](Cc1ccccc1)C(=O)N[C@H](Cc1ccccc1)C(=O)N1CCC[C@H]1C(=O)N[C@H](Cc1ccccc1)C(=O)N[C@@H](CCCNC(=N)N)C(=O)N[C@@H](CCCNC(=N)N)C(N)=O [Peptide 6, H-Ile-Leu-Pro-D-Phe-Lys-D-Phe-Pro-D-Phe-D-Phe-Pro-D-Phe-Arg-Arg-NH2] (H-ILP[dF]K[dF]P[dF][dF]P[dF]RR-NH2) | 306 ± 103 imp/min | 246 ± 48 imp/min | 298 ± 63 imp/min | 736 ± 161 imp/min | 0% | 1% | 8% | 1% | 10% | 7% | 1530 ± 510 imp/min | 1615 ± 248 imp/min | 1854 ± 236 imp/min | 3279 ± 177 imp/min | exceeding 200 μg/ml | effect on splenocyte proliferation stimulated with lipopolysaccharide (in words) [2]: inhibited the LPS effect; effect on NO production stimulated by LPS (in words) ([3]; 10-0.4 μg/ml doses): inhibited the NO production; effect on spontaneous proliferation of splenocytes (in words) (spleen cells; 2-10 μg/ml dose range): statistically significant enhancement of the spontaneous proliferation of splenocytes
3 | CC[C@H](C)[C@H](N)C(=O)N[C@@H](CC(C)C)C(=O)N1CCC[C@H]1C(=O)N[C@@H](Cc1ccccc1C)C(=O)N[C@@H](CCCCN)C(=O)N[C@@H](Cc1ccccc1C)C(=O)N1CCC[C@H]1C(=O)N[C@@H](Cc1ccccc1C)C(=O)N[C@@H](Cc1ccccc1C)C(=O)N1CCC[C@H]1C(=O)N[C@@H](Cc1ccccc1C)C(=O)N[C@@H](CCCNC(=N)N)C(=O)N[C@@H](CCCNC(=N)N)C(N)=O [Peptide 11, H-Ile-Leu-Pro-(2-Me)Phe-Lys-(2-Me)Phe-Pro-(2-Me)Phe-(2-Me)Phe-Pro-(2-Me) Phe-Arg-Arg-NH2] (H-ILP[Phe(2-Me)]K[Phe(2-Me)]P[Phe(2-Me)][Phe(2-Me)]P[Phe(2-Me)]RR-NH2) | – | – | – | – | – | – | – | – | – | – | – | – | – | – | exceeding 200 μg/ml | –
4 | Polymixin B [PMB] | 255 ± 68 imp/min | 197 ± 10 imp/min | 197 ± 12 imp/min | 201 ± 66 imp/min | 44% | 85% | 94% | 11% | 62% | 98% | 1488 ± 497 imp/min | 1548 ± 140 imp/min | 2051 ± 167 imp/min | 2051 ± 456 imp/min | – | –
